Laboratory results from ChEMBL document CHEMBL1129744, “Novel imidazothioxanthones: Synthesis, DNA binding and cytotoxicity” (Bioorg Med Chem Lett, 1996).

Columns and labels:
[1] = Compound was evaluated for induced thermal stabilization for compound: DNA ratio of 1:10 at 0.1 to 0.2 degrees Centigrade.; parameters: unit: °C
[2] = Compound was evaluated for induced thermal stabilization for compound: DNA ratio of 1:5 at 0.1 to 0.2 degrees Centigrade.; parameters: unit: °C
[3] = test system: A2780; experiment: Compound was evaluated for cytotoxicity against A2780 cell lines.; format: functional, cell-based; details: Homo sapiens
[4] = test system: A2780; experiment: Compound was evaluated for cytotoxicity against A2780 cis cell lines.; format: functional, cell-based; details: Homo sapiens
[5] = test system: SK-OV-3; experiment: Compound was evaluated for cytotoxicity against SCOV-3 cell lines.; format: functional, cell-based; details: Homo sapiens
[6] = test system: MAC15A; experiment: Compound was evaluated for cytotoxicity against Mac15A cell lines.; format: functional, cell-based; details: Mus musculus
[7] = test system: HOP-92; experiment: Compound was evaluated for cytotoxicity against HOP-92 cell lines.; format: functional, cell-based; details: Homo sapiens
[8] = test system: MOLT-4; experiment: Compound was evaluated for cytotoxicity against MOLT-4 cell lines.; format: functional, cell-based; details: Homo sapiens
[9] = test system: SW-620; experiment: Compound was evaluated for cytotoxicity against SW-620 cell lines.; format: functional, cell-based; details: Homo sapiens
[10] = test system: MCF7; experiment: Compound was evaluated for cytotoxicity against MCF-7 cell lines.; format: functional, cell-based; details: Homo sapiens
[11] = test system: WEHI; experiment: Compound was evaluated for cytotoxicity against WEHI cell lines.; format: functional, cell-based; details: Mus musculus

Change in Tm [1] | Change in Tm [2] | Structure (SMILES) | IC50 [3] [nM] | IC50 [4] [nM] | IC50 [5] [nM] | IC50 [6] [nM] | IC50 [7] [nM] | IC50 [8] [nM] | IC50 [9] [nM] | IC50 [10] [nM] | IC50 [11] [nM]
6 | 10.5 | O=C(NCCN1CCCCC1)c1cn2c(ccc3sc4ccccc4c(=O)c32)n1 | 560 | 650 | 7700 | 180 | – | – | – | – | –
1.6 | 2.9 | O=C(NCCN1CCOCC1)c1cn2c(ccc3sc4ccccc4c(=O)c32)n1 | 5800 | 7600 | 23000 | – | 12800 | 3300 | 4850 | 7080 | –
1.9 | 3.5 | O=C(c1cn2c(ccc3sc4ccccc4c(=O)c32)n1)N1CCN(CCO)CC1 | 740 | 1800 | 13500 | 420 | – | – | – | – | –
3.4 | 6.5 | O=C(NCCN1CCCC1)c1cn2c(ccc3sc4ccccc4c(=O)c32)n1 | 4500 | 6000 | 29000 | – | 15900 | 470 | 1520 | 610 | –

The remaining lines, values behind:

Structure (SMILES) | Change in Tm [1] | Change in Tm [2] | IC50 [3] [nM] | IC50 [4] [nM] | IC50 [5] [nM] | IC50 [6] [nM] | IC50 [7] [nM] | IC50 [8] [nM] | IC50 [9] [nM] | IC50 [10] [nM] | IC50 [11] [nM]
CCN(CC)CCCNC(=O)c1cn2c(ccc3sc4ccccc4c(=O)c32)n1 | 7 | 12.4 | 430 | 480 | 1650 | – | – | – | – | – | –
CCOC(=O)c1cn2c(ccc3sc4ccccc4c(=O)c32)n1 | 0.5 | 1.2 | > 100000 | > 100000 | > 100000 | – | 87500 | > 100000 | > 100000 | 84400 | > 100000
CN(C)CCCNC(=O)c1cn2c(ccc3sc4ccccc4c(=O)c32)n1 | 5.7 | 10.4 | 540 | 760 | 2150 | 500 | 360 | 420 | 1440 | 11200 | 300
Nc1ccc2cc3ccc(N)cc3nc2c1 [PROFLAVINE] | 6.3 | 11.5 | – | – | – | – | – | – | – | – | –
O=C1c2c(O)ccc(O)c2C(=O)c2c(NCCNCCO)ccc(NCCNCCO)c21 [MITOXANTRONE] | 15 | > 25 | 5500 | – | – | – | – | – | – | – | –
